Results: patent publication US20180368393A1, “PRE- AND POST-STORAGE STRESS RESPONSE CONDITIONING” (CPSI HOLDINGS LLC, priority 2017, published 2018)

Key:
[1] = test system: endothelial and smooth muscle cells; assay: Summary of Examples 2-3: post-thaw survival of endothelial and smooth muscle cells (Calcein-AM assay); assay type: cell-based, human
Experimental: For pre-freeze (PF), post-warming (PW) and pre/post (P/P) conditioning studies, molecular modulation agents targeting inhibition of apoptosis (Caspase inhibitor IV, 8, 9 and a combination of Caspases 8 and 9), reduction of free-radical damage (resveratrol and NAC), and activation of the unfolded protein response (salubrinal) were employed as supplements in the media 1 hour prior to freezing (pre-freeze condition) or for 1 day following thawing and CPA removal from frozen samples (post-warming condition).
The device was used to thaw the samples, which were frozen in situ in monolayers in standard 96-well tissue culture plates. Samples were thawed from less than −170° C. to about 4° C. in the 96-well plate format in about 5 mins in a dry clean (“sterile”) environment.
The P/P regime was followed by PW using Caspase 8 inhibition or NAC inhibition.

[2] = test system: hamster beta islet cells; assay: Hamster beta islet cell survival following cryopreservation (AlamarBlue assay); assay type: cell-based; conditions: PW conditioning 24 hours vs non-modulated samples; 10 mM NAC recovery media
Experimental: The studies described in example 8 focus on the collection of cell survival data and the impact of post-thaw conditioning on hamster beta islet cells. Specific activities included standard cryopreservation protocol and collection of data (survival and cell death) from samples frozen using 3 unique cryopreservation solutions (media with 0, 5% DMSO and 5% DMSO+NAC) and oxidative stress PW modulation (NAC). Survival was determined at 24 hours post-thaw to allow for the manifestation of any delayed onset cell death pathways to be executed. Further, cell recovery was included to evaluate the long term potency and repopulation potential of the various samples.
Cell samples were processed according to standard controlled rate suspension freeze protocols and analyzed following 24 hours to 3 days post thaw for survival and recovery. […] To this end, samples were probed with AlamarBlue, incubated for 60 mins in the dark and then assessed using a Tecan micro plate reader. […]
FIG. 33 illustrates the results of an assessment of beta islet cell survival following cryopreservation in media based solutions with various CPA concentrations. […] Following thawing, samples were placed into culture and assessed for viability at 1 day (24 hours) post-thaw using the AlamarBlue assay. […]

[3] = test system: human endothelial cells; assay: Human endothelial cell monolayer survival and repopulation following cryopreservation (Calcein-AM assay); assay type: cell-based
Experimental: A series of cryopreservation experiments was conducted on human endothelial and smooth muscle cell suspensions and monolayers to assess the performance of four (4) commercially available cryopreservation solutions: DP6, VS55, VS83, and M22, as well as nine (9) additional solutions: […] Eurocollins (EC) solution was included as a negative control, i.e., no cryoprotective agent (CPA) control, while media+10% DMSO ([…]) is a typical solution (10% DMSO) used in standard controlled rate cryopreservation protocols known to the skilled individual. Unisol is representative of the class of intracellular-like or intracellular-type solutions/media, whereas EC solution and culture media are representative of the class of extracellular-like or extracellular-type solutions/media. Other studies presented herein provide additional examples of intracellular- and extracellular-like solutions; other intracellular- and extracellular-like solutions are similarly useful and are known to those of skill in the art. FIG. 1 illustrates the results of an assessment of human endothelial cell survival following preservation. Monolayers of endothelial cells were frozen or vitrified and thawed in the indicated solutions (control, Uni, […], DP6, VS55, VS83, and […]). Following thawing, samples were diluted in culture media, placed into culture and assessed for viability at 1 day (24 hours) post-thaw and following seven (7) days of recovery using the Calcein-AM assay. […] The Uni and U10 conditions provided outcomes exceeding that of the VS55, VS83 and […] conditions. Therefore, subsequent studies (see, e.g., FIG. 2) focused on Unisol-based solutions with various CPAs and concentrations, in addition to the DP6 commercial cryopreservation solution. […] Monolayers of endothelial cells were frozen or vitrified and thawed in the indicated solutions. […] For pre-freeze (PF), post-warming (PW) and pre/post (P/P) conditioning studies, molecular modulation agents targeting inhibition of apoptosis (Caspase inhibitor IV, 8, 9 and a combination of Caspases 8 and 9), reduction of free-radical damage (resveratrol and NAC), and activation of the unfolded protein response (salubrinal) were employed as supplements in the media 1 hour prior to freezing (pre-freeze condition) or for 1 day following thawing and CPA removal from frozen samples (post-warming condition). Based on outcomes in the studies in Example 1, PF, PW and P/P conditioning were examined in Examples 2-3 using a series of Unisol-based solutions (Uni, U5, U10, U20, UG10, U5G10 and U10G10). […] Patent Application Publication No. US 2016/0097583 A1 (Ser. No. 14/876,087), which is incorporated by reference in its entirety as though fully set forth herein. The freeze and thaw process was slightly modified relative to the disclosure of U.S. Patent Application Publication No. US 2016/0097583 A1 by the addition of a 0.090 inch aluminum plate inserted into the bottom of the 96 well plate to aid in increasing cooling and heating uniformity throughout the plate, thereby reducing the well-to-well variability within the samples. The device was used to thaw the samples, which were frozen in situ in monolayers in standard 96-well tissue culture plates. […] A mitochondrial-mediated apoptotic inhibitor (Caspase 9) and a membrane-mediated apoptotic inhibitor (Caspase 8) were investigated to evaluate the involvement and impact of modulation of various apoptotic induction pathways. Additionally, a pan-Caspase inhibitor (Cas IV) was also investigated to assess the impact of global pathway modulation. As with the viability studies, cell survival and repopulation were assessed using Calcein-AM assays and analyzed using fluorescent microscopy (Zeiss). Survival was determined at 24 hours post-thaw to allow for the manifestation of any delayed onset cell death pathways to be executed. Further, cell recovery was included to evaluate the long term potency and repopulation potential of the various samples. […]

CC(=O)N[C@@H](CS)C(=O)O [NAC, n-acetyl cysteine]
day 1 post-thaw cell survival and cell recovery ([1]; PF, PW and P/P conditioning, Unisol based solutions): Improvements in survival | increase in cell survival over non-treated samples ([1]; PW conditioning): ~50% | post-thaw survival [2]: improvement in post-thaw survival | survival ([3]; P/P conditioning with NAC, salubrinal or resveratrol, U10G10): ~60% | post-thaw viability ([3]; P/P conditioning, U10 and U5G10 CP solutions vs matched non-treated samples): increase in post-thaw viability | day 1 survival increase over non-treated samples ([3]; P/P oxidative stress modulator conditioning, U10G10): ~2.5 fold | day 1 survival increase over non-treated samples ([3]; PF conditioning 1 hour, U10G10): ~2 fold | day 1 survival increase over non-treated samples ([3]; PW conditioning 24 hours, U10G10): ~2 fold | post-thaw cell survival or recovery (overall) ([3]; PW conditioning in combination with various solutions): Broader solution benefit | cell recovery / repopulation, 3 days ([3]; PW conditioning with oxidative stress modulators, vs non-treated): improved cell recovery | increase in survival ([3]; PW conditioning, U10 and U10G10 solutions, day 1): ~50%
